Data set [1] has as its system advanced NRAS-mutant melanoma. Particulars: cited from earlier work.
Data set [2] concerns Calu-6 (KRAS Q61K), HCT116 (KRAS G13D). In words: cell-based anti-proliferative assay, Calu-6 and HCT116. Particulars: Homo sapiens; range over Calu-6 and HCT116; read-out: IC50, inhibition of proliferation.
Data set [3] concerns SKMEL30 cells (NRAS Q61K melanoma cells). In words: SKMEL30 NRAS-mutant melanoma xenograft in nude mice. Particulars: for % regression: day 21 post-implant (9 days of treatment). It is filed as in vivo. The procedure:
[…]. Mice were randomized into treatment groups on day 12 post implantation, when the average tumor volume was ˜200 mm^3. […] Treatments began on day 12 and continued until day 21 post implantation. Tumor volume and body weights were collected at the time of randomization and twice per week for the study duration. Tumor volume was determined by measurement with calipers and calculated using a modified ellipsoid formula, where tumor volume (TV) (mm^3)=[((1×w2)×3.14159))/6], where 1 is the longest axis of the tumor and w is perpendicular to 1. Mice were monitored for tumor growth, body weight and body condition. Animal well-being and behavior were monitored twice weekly. General health of mice was monitored daily. The anti-tumor activity was determined by assessing % T/C or % regression on day 21 post-implant (9 days of treatment).

Data set [4] has as its target c-Raf FL (Homo sapiens, UniProt P04049). The experiment in a line: c-Raf FL biochemical assay. The following applies: read-out: c-Raf FL IC-50.
The target in data set [5] is b-Raf (Homo sapiens, UniProt P15056). In words: b-Raf biochemical assay. Particulars: read-out: b-Raf IC-50.
b-Raf, sequence (P15056 2-766): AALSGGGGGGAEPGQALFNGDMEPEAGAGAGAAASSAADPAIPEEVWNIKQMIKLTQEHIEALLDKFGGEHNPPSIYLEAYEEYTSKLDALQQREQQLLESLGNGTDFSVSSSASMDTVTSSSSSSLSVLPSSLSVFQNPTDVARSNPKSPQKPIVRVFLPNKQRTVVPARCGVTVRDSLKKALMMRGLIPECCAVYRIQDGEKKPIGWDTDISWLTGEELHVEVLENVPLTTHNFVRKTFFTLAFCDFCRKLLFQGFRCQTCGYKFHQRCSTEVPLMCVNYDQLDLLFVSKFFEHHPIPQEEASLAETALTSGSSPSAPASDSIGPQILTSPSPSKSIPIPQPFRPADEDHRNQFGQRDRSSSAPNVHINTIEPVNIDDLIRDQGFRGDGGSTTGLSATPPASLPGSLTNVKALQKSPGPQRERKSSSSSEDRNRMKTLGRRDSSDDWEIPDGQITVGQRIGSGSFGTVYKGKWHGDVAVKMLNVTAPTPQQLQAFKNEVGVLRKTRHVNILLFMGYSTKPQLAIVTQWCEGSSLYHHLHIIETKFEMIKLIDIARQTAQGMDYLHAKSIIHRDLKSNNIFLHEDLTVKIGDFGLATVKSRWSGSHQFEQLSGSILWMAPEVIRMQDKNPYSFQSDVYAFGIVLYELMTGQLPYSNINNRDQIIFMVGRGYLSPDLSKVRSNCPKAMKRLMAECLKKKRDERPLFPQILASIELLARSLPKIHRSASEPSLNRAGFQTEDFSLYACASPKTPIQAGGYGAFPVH
The subject of data set [6] is Hey-A8 (KRAS G12D, BRAF G464E) xenografts. In words: Hey-A8 ovarian xenograft in mice. It is filed as in vivo. The procedure:
(§1) Regressions were also achieved in a second human NSCLC model, NCI-H358, at the 200 mg/kg QD dose in mice and in the human ovarian Hey-A8 xenograft at doses as low as 30 mg/kg QD in mice.

In data set [7] the test system is H727 Model. The experiment in a line: H727 model, KRASmt NSCLC xenograft. It is filed as in vivo, mice. Particulars: FIGS. 15A, 15B, 15C (H358, Calu6, H727 models); H727: 100 mg/kg daily oral, 14 days.
Data set [8] has as its system Calu-6 (KRAS Q61K) xenografts. In words: Calu-6 xenograft in nude rats. It is filed as in vivo.
Data set [9] can be described thus: cell-based anti-proliferative assay, melanoma and NSCLC lines. Particulars: Homo sapiens, read-out: IC50, inhibition of proliferation.
The test system of data set [10] is NCI-H358 (KRAS G12C) xenografts. The experiment in a line: NCI-H358 xenograft in mice. It is filed as in vivo. The procedure:
SCID beige female tumor bearing NCI-H358 mice, n=8 per group, were randomized into 3 groups 14 days post tumor cell inoculation with an average tumor volume range of 259.44-262.47 mm^3.
Tumor volumes were measured by digital caliper 3 times a week and body weights of all animals were recorded through the course of treatment.
as §1

The subject of data set [11] is Calu-6 (KRAS Q61K) xenografts. In words: Calu-6 xenograft in nude mice. It is filed as in vivo. The procedure: Female nude tumor bearing Calu6 mice, n=6 per group were randomized into treatment groups on day 17 following tumor implantation, when the average tumor volume was 180 mm3. […] Dosing volume was 10 mL/kg. Tumor volumes were collected at the time of randomization and twice weekly thereafter for the study duration.
as §1

Data set [12] in a line: tolerability in KRAS- and NRAS-mutant xenograft models (body weight). Particulars: all xenograft models. It is filed as in vivo. The procedure: as §1
Data set [13] has as its system non-small cell lung cancer (NSCLC). In words: Phase I dose finding study of Compound A, single agent. It is filed as in vivo, human. Particulars: one NSCLC subject, 1200 mg QD, preliminary. The procedure: Provisional doses for dose escalation can be found in the Table below. […]
In the dose expansion part, patients in Compound A single agent arm are treated with Compound A at the recommended dose and regimen selected based on the dose escalation data. This dose is expected to be safe and tolerated in adult patients in all indications included in the trial. The single agent arm consists of 3 distinct groups: KRAS- and/or BRAF-mutant NSCLC, KRAS- and/or BRAF-mutant ovarian cancer, and patients with other solid tumors (which may be advanced) harboring MAPK pathway alteration(s) such as relapsed/refractory melanoma after failure of BRAFi/MEKi combination therapy and NRAS-mutant melanoma patients.
This was further confirmed by preliminary results obtained from the clinical trial.

Data set [14] in a line: predicted human PK of Compound A.
Setting [15] is: patients with NRAS-mutant melanoma.

The text below walks through data of US20190175609A1, “THERAPEUTIC USES OF A C-RAF INHIBITOR” (Novartis AG, priority 2016, published 2019).

SMILES strings stand for the structures.

c-Raf FL, sequence (P04049 whole entry): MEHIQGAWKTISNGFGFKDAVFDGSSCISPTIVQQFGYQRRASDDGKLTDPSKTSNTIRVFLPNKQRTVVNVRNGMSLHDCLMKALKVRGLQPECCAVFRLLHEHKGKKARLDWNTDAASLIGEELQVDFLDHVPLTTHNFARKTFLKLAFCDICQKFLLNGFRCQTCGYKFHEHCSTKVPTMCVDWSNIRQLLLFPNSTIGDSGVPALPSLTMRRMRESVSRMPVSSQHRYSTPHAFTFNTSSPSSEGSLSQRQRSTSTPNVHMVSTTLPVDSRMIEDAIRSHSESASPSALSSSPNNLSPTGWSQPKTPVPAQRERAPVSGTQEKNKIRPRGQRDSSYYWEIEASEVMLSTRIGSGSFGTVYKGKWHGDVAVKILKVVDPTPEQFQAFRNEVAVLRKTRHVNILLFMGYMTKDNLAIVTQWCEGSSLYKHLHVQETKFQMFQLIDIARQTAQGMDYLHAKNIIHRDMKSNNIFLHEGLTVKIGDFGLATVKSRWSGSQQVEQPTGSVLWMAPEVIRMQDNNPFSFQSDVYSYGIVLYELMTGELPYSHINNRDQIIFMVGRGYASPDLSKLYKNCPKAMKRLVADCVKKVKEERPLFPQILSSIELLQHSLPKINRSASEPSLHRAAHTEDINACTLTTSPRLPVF

Turning to `CN(C)/N=N/c1[nH]cnc1C(N)=O` [dacarbazine], in data set [1] (setting [15]), the “discontinuation rate as a result of adverse events suspected to be related to study drug” value was 5%.

Regarding `Cc1ccc(NC(=O)c2ccnc(C(F)(F)F)c2)cc1-c1cc(OCCO)nc(N2CCOCC2)c1` [COMPOUND A, N-(3-(2-(2-hydroxyethoxy)-6-morpholinopyridin-4-yl)-4-methylphenyl)-2-(trifluoromethyl)isonicotinamide], the IC50 in [2] was 200 to 1200 nM; in data set [4], 0.2 nM; in data set [5], 0.73 nM; in data set [9], 200 to 1200 nM. Moreover, the “% regression” value came to 48% in data set [3] (25 mg/kg bid) and 59% in data set [3] (100 mg/kg bid). For the same compound, the tolerability result in data set [3] (25 and 100 mg/kg bid, body weight, toxicity signs, mortality) is reported as “well tolerated”. Moreover, the anti-tumor effect result was “tumor regression” in [3] (SK-MEL-30 melanoma model, dose not stated); “tumor regression” in [6] (Hey-A8 xenograft, dose not stated); “tumor regressions” in data set [6] (Hey-A8 xenograft, dose not stated, listed as Compound A); “Regressions” in data set [6] (doses as low as 30 mg/kg QD, mice); “Tumor stasis” in data set [8] (35 mg/kg QD, rats); “regressions” in data set [8] (75 and 150 mg/kg QD, nude rats). For the same compound, the anti-tumor effect entry in data set [10] (200 mg/kg QD, mice) was “Regressions”; in [10] (NCI-H358 xenograft, dose not stated), “tumor regression”; in data set [10] (NCI-H358 xenograft, dose not stated, listed as Compound A) it was “tumor regressions”; in data set [11] (30 mg/kg QD, mice) it was “Tumor stasis”; in [11] (100, 200, and 300 mg/kg once daily (QD), nude mice) it was “regressions”; in [11] (Calu-6 xenograft, dose not stated) it was “tumor regression”. In addition, the anti-tumor effect entry in [11] (Calu-6 xenograft, dose not stated, listed as Compound A) is recorded as “tumor regressions”. Besides, the “single agent activity in KRASmt NSCLC models” value in data set [7] is “showed single agent activity”. Moreover, the “tolerability judged by body weight loss” value in data set [12] is recorded as “well tolerated”. The “partial response according to RECIST” value in [13] was −35%. The predicted half-life in [14] was about 9 h.

Turning to `Cn1cnc2c(F)c(Nc3ccc(Br)cc3F)c(C(=O)NOCCO)cc21` [binimetinib], the “HR for PFS, in favor of binimetinib” value in [1] (binimetinib vs. dacarbazine) is 0.62 (0.47-0.80). Besides, in [1] (setting [15]), the “discontinuation rate as a result of adverse events suspected to be related to study drug” value is 20%, the “median PFS (95% CI)” value was 2.8 (95% CI: 2.8-3.6), the overall response rate is given as 15% and the “overall survival (95% CI)” value is reported as 11.0 (95% CI: 8.9-13.6) months.
